The test system of one test is GP2D (KRAS G12D) cells. The test is described as follows: 2D cell viability assay (CellTiter-Glo). Particulars: 4 days. Format: cell-based. The method in brief: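 GP2D (KRAS G12D) cells, 1000/well in RPMI + 10% FBS, were plated onto compound (1:3 DMSO series) and grown 4 days at 37 °C, 5% CO2 in 2D. CellTiter-Glo luminescence was read; EC50 is the concentration giving 50% signal decrease, from sigmoidal fit.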
(In general: Cellular ATP, detected with luciferase, serves as a proxy for viable cell number.)

The test system of a further test is AsPC-1 (KRAS G12D) cells. The test is described as follows: 3D cell viability assay (spheroids, CellTiter-Glo 3D). It counts as cell-based. Particulars: AsPC-1 cells, 3D spheroids, 4 days. The essentials: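 AsPC-1 cells (1000/well) in DMEM with 10% FBS formed spheroids over 3 days at 37 °C in ultra-low attachment plates, then were treated with 1:3 serial dilutions for 4 days. Viability read by CellTiter-Glo 3D luminescence; EC50 as concentration giving 50% signal decrease, sigmoidal fit.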

The target of the next test is GDP-loaded KRAS G12D (Homo sapiens (Human), UniProt P01116, G12D). Briefly: KRAS G12D (GDP) biochemical assay (TR-FRET probe displacement). It counts as binding. Particulars: 2 hours. The essentials:
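Compound pre-incubated 30 min with GDP-loaded KRAS G12D in 50 mM Hepes pH 7.4, 150 mM NaCl, 5 mM MgCl2, 0.005% Tween-20, then Eu-streptavidin and TR-FRET probe added. After 2 h at room temperature, TR-FRET ratio read; IC50 is 50% ratio decrease, sigmoidal fit.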
In general terms: Time-resolved FRET reads energy transfer from a long-lived donor to a nearby acceptor.

One may read the EC50 as the concentration needed to bring the measured effect to its halfway point. A low value points to a more potent agent. One may read the IC50 as the concentration that inhibits the measured activity by half. The low end stands for inhibition by little substance, the high end for a need for much substance.

Sequence of GDP-loaded KRAS G12D (P01116-2 other isoform, or with tags, fused parts or gaps G12D): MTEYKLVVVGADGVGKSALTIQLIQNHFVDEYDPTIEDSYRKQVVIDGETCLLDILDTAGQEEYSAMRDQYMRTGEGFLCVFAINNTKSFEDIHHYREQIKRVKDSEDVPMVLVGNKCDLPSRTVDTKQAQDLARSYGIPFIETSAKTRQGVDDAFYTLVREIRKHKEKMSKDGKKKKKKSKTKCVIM

On to `Oc1cc(-c2nc3c4c(nc(OC[C@@]56CCCN5C[C@@]5(CC5(F)F)C6)nc4c2F)N2C[C@H]4CC[C@H](N4)[C@H]2CC3)c2c(OC(F)(F)F)c(F)ccc2c1` [Example 99, 4-((5aR,6S,9R)-12-(((1S,7a'S)-2,2-difluorodihydro-1′H,3′H-spiro[cyclopropane-1,2′-pyrrolizin]-7a′(5′H)-yl)methoxy)-1-fluoro-4,5,5a,6,7,8,9,10-octahydro-3,10a,11,13,14-pentaaza[6,9]methanonaphtho[1,8-ab]heptalen-2-yl)-6-fluoro-5-(trifluoromethoxy)naphthalen-2-ol], for which the EC50 in the test on GP2D (KRAS G12D) cells (GP2d, 96 h) worked out at 7.4 nM; with AsPC-1 (KRAS G12D) cells (Homo sapiens, ASPC1, 96 h), 110 nM. The same compound came in with an IC50 on GDP-loaded KRAS G12D of 0.6 nM.
The corresponding values for `Oc1cc(-c2nc3c4c(nc(OCC5(CN6CCC(OC(F)(F)F)CC6)CC5)nc4c2F)N2C[C@H]4CC[C@H](N4)[C@H]2CC3)c2c(OC(F)(F)F)c(F)ccc2c1` [Example 102, 6-fluoro-4-((5aR,6S,9R)-1-fluoro-12-((1-((4-(trifluoromethoxy)piperidin-1-yl)methyl)cyclopropyl)methoxy)-4,5,5a,6,7,8,9,10-octahydro-3,10a,11,13,14-pentaaza-6,9-methanonaphtho[1,8-ab]heptalen-2-yl)-5-(trifluoromethoxy)naphthalen-2-ol] are 39.5 nM, 680 nM and 3.3 nM.
The like results for `C#Cc1c(F)ccc2cc(O)cc(-c3nc4c5c(nc(OC[C@@]67CCCN6[C@H](COc6cccc(S(F)(F)(F)(F)F)c6)CC7)nc5c3F)N3C[C@H]5CC[C@H](N5)[C@H]3CC4)c12` [Example 104, 5-ethynyl-6-fluoro-4-((5aR,6S,9R)-1-fluoro-12-(((3S,7aS)-3-((3-(pentafluoro-λ6-sulfaneyl)phenoxy)methyl)tetrahydro-1H-pyrrolizin-7a(5H)-yl)methoxy)-4,5,5a,6,7,8,9,10-octahydro-3,10a,11,13,14-pentaaza-6,9-methanonaphtho[1,8-ab]heptalen-2-yl)naphthalen-2-ol] were, in that order, 8.7 nM, 53 nM and 0.8 nM.
The corresponding values for `C#Cc1c(F)ccc2cc(O)cc(-c3nc4c5c(nc(OCC6(CN7CCC(OC(F)(F)F)CC7)CC6)nc5c3F)N3C[C@H]5CC[C@H](N5)[C@H]3CC4)c12` [Example 106, 5-ethynyl-6-fluoro-4-((5aR,6S,9R)-1-fluoro-12-((1-((4-(trifluoromethoxy)piperidin-1-yl)methyl)cyclopropyl)methoxy)-4,5,5a,6,7,8,9,10-octahydro-3,10a,11,13,14-pentaaza-6,9-methanonaphtho[1,8-ab]heptalen-2-yl)naphthalen-2-ol] are 1.9 nM, 8.2 nM and 0.2 nM.
For `C#Cc1c(F)ccc2cc(O)cc(-c3nc4c5c(nc(OC[C@@]67CCCN6[C@H](COC(C)(C(F)(F)F)C(F)(F)F)CC7)nc5c3F)N3C[C@H]5CC[C@H](N5)[C@H]3CC4)c12` [Example 109], the EC50 in the test on GP2D (KRAS G12D) cells (GP2d, 96 h) is 1.2 nM; in the test on AsPC-1 (KRAS G12D) cells (Homo sapiens, ASPC1, 96 h) it was 0.8 nM. The compound also came in with an IC50 on GDP-loaded KRAS G12D of 0.1 nM.
Consider `C#Cc1c(F)ccc2cc(O)cc(-c3nc4c5c(nc(OC[C@@]67CCCN6[C@H](COC(C6CC6)C(F)(F)F)CC7)nc5c3F)N3C[C@H]5CC[C@H](N5)[C@H]3CC4)c12` (stereo partly drawn) [Example 110, 4-((5aR,6S,9R)-12-(((3S,7aS)-3-((1-cyclopropyl-2,2,2-trifluoroethoxy)methyl)tetrahydro-1H-pyrrolizin-7a(5H)-yl)methoxy)-1-fluoro-4,5,5a,6,7,8,9,10-octahydro-3,10a,11,13,14-pentaaza-6,9-methanonaphtho[1,8-ab]heptalen-2-yl)-5-ethynyl-6-fluoronaphthalen-2-ol], for which the figures for the EC50 in the test on GP2D (KRAS G12D) cells and in the test on AsPC-1 (KRAS G12D) cells were 36.1 nM and 51 nM, respectively. The IC50 at GDP-loaded KRAS G12D worked out at 0.3 nM.
`C#Cc1c(F)ccc2cccc(-c3nc4c5c(nc(OC[C@@]67CCCN6[C@H](COC(C6CC6)C(F)(F)F)CC7)nc5c3F)N3C[C@H]5CC[C@H](N5)[C@H]3CC4)c12` (stereo partly drawn) [Example 111, (5aR,6S,9R)-12-(((3S,7aS)-3-((1-cyclopropyl-2,2,2-trifluoroethoxy)methyl)tetrahydro-1H-pyrrolizin-7a(5H)-yl)methoxy)-2-(8-ethynyl-7-fluoronaphthalen-1-yl)-1-fluoro-4,5,5a,6,7,8,9,10-octahydro-3,10a,11,13,14-pentaaza-6,9-methanonaphtho[1,8-ab]heptalene]: the EC50 in the test with GP2D (KRAS G12D) cells (GP2d, 96 h) is 69.9 nM; in the test with AsPC-1 (KRAS G12D) cells (Homo sapiens, ASPC1, 96 h) it was 360 nM. This compound also displayed an IC50 at GDP-loaded KRAS G12D of 0.7 nM.
The like results for `C#Cc1c(F)ccc2cccc(-c3nc4c5c(nc(OC[C@@]67CCCN6[C@H](COC(C)(C(F)(F)F)C(F)(F)F)CC7)nc5c3F)N3C[C@H]5CC[C@H](N5)[C@H]3CC4)c12` [Example 112, (5aR,6S,9R)-2-(8-ethynyl-7-fluoronaphthalen-1-yl)-1-fluoro-12-(((3S,7aS)-3-(((1,1,1,3,3,3-hexafluoro-2-methylpropan-2-yl)oxy)methyl)tetrahydro-1H-pyrrolizin-7a(5H)-yl)methoxy)-4,5,5a,6,7,8,9,10-octahydro-3,10a,11,13,14-pentaaza-6,9-methanonaphtho[1,8-ab]heptalene] were, in that order, 41 nM, 270 nM and 0.3 nM.
The like results for `C#Cc1c(F)ccc2cccc(-c3nc4c5c(nc(OC[C@@]67C[C@@H](F)CN6CC6(CC6)C7)nc5c3F)N3C[C@H]5CC[C@H](N5)[C@H]3CC4)c12` [Example 113, (5aR,6S,9R)-2-(8-ethynyl-7-fluoronaphthalen-1-yl)-1-fluoro-12-(((6′R,7a′R)-6′-fluorodihydro-1′H,3′H-spiro[cyclopropane-1,2′-pyrrolizin]-7a′(5′H)-yl)methoxy)-4,5,5a,6,7,8,9,10-octahydro-3,10a,11,13,14-pentaaza-6,9-methanonaphtho[1,8-ab]heptalene] were, in that order, 7.3 nM, 57 nM and 0.2 nM.
The like results for `C#Cc1c(F)ccc2cccc(-c3nc4c5c(nc(OC[C@@]67CCCN6[C@H](COC(C)(C(F)(F)F)C(F)(F)F)CC7)nc5c3F)N3C[C@H]5CC[C@H](N5)[C@H]3CCC4)c12` [Example 115, (6aR,7S,10R)-2-(8-ethynyl-7-fluoronaphthalen-1-yl)-1-fluoro-13-(((3S,7aS)-3-(((1,1,1,3,3,3-hexafluoro-2-methylpropan-2-yl)oxy)methyl)tetrahydro-1H-pyrrolizin-7a(5H)-yl)methoxy)-5,6,6a,7,8,9,10,11-octahydro-4H-3,11a,12,14,15-pentaaza-7,10-methanocyclohepta[4,5]cycloocta[1,2,3-de]naphthalene] were, in that order, 11.5 nM, 100 nM and 0.1 nM.
For the compound `C#Cc1c(F)ccc2cccc(-c3nc4c5c(nc(OC[C@@]67CCCN6C[C@H](F)C7)nc5c3F)N3C[C@H]5CC[C@H](N5)[C@H]3[C@H](C)O4)c12` [Example 116, (5S,5aS,6S,9R)-2-(8-ethynyl-7-fluoronaphthalen-1-yl)-1-fluoro-12-(((2R,7aS)-2-fluorotetrahydro-1H-pyrrolizin-7a(5H)-yl)methoxy)-5-methyl-5a,6,7,8,9,10-hexahydro-5H-4-oxa-3,10a,11,13,14-pentaaza-6,9-methanonaphtho[1,8-ab]heptalene], the EC50 in the test on GP2D (KRAS G12D) cells (GP2d, 96 h) was determined as 6 nM; in the test on AsPC-1 (KRAS G12D) cells (Homo sapiens, ASPC1, 96 h), 25 nM. The same compound displayed an IC50 on GDP-loaded KRAS G12D of 0.6 nM.

For the origin of these results see patent US20230339981A1, “KRAS G12D MODULATING COMPOUNDS” (priority 2022, published 2023).
